In US20260107957A1, “USE OF AN EMULSIFIER DERIVED FROM RICINOLEIC ACID TO INCREASE THE ABSORPTION OF CALCIUM AND PHOSPHORUS IN THE DIGESTIVE TRACT OF FARM ANIMALS” (priority 2023, published 2026):

Tested on: laying hens
Test: Assessment of shell quality in laying hen farms
Assay type: in vivo
Details: egg production
Experimental: In order to assess the effect of the use of the nutritional supplement on the calcium and phosphorus absorption in laying hens, several studies on laying hens from different farms were carried out. The studies comprised the analysis of animals before and after the feed with the formulation containing the nutritional supplement comprising ingredients shown in Table 3.
More specifically, an assessment of the shell quality in laying hens was conducted by collecting the eggs before and after feeding the animals with the formulation containing the nutritional supplement. Hens from farms in the states of Espírito Santo (350,000 hens), São Paulo (2,000,000 hens), Paraná (1,100,000 hens), and Minas Gerais ([…]) were fed with a pair of feed formulas, one without and another one with the nutritional supplement of the present invention.
Laid eggs were collected after feeding the hens with regular feed and later with the feed containing the emulsifier of the present invention. Data obtained from the analysis of the eggs from the farms in Espírito Santo, São Paulo, Paraná, and Minas Gerais are included in Tables 6 to 9 below, the beneficial effects on the shells being emphasized thereof, among them the reduction in cracks in chicken eggs.

For `CCCCCC[C@@H](O)C/C=C\CCCCCCCC(=O)[O-].[Na+]` [emulsifier derived from ricinoleic acid, Sodium Ricinolate], the “increase of the amount of saleable eggs” value was “up to 5%” and the “eggs produced daily lost by shell problems” value (usual loss up to 7%) was “below 2%”.
